pIC50: −log10 of the molar value.
Experiments:
NCI-H209 = assay: Antiproliferative activity against human NCI-H209 cells incubated for 72 hrs; type: functional, cell-based; settings: NCI-H209, 72 h
NCI-H1048 [1] = assay: Induction of early apoptosis in human NCI-H1048 cells incubated for 48 hrs by Annexin V-FITC/PI staining based flow cytometry; type: functional, cell-based; settings: dose 1-8 µM
[2] = Antiproliferative activity against human NCI-H196 cells incubated for 72 hrs; type: functional, cell-based; settings: NCI-H196, 72 h
NCI-H446 [3] = assay: Antiproliferative activity against human NCI-H446 cells incubated for 72 hrs; type: functional, cell-based; settings: NCI-H446, 72 h
NCI-H1048 [4] = assay: Antiproliferative activity against human NCI-H1048 cells incubated for 72 hrs; type: functional, cell-based; settings: NCI-H1048, 72 h
NCI-H146 = assay: Antiproliferative activity against human NCI-H146 cells incubated for 72 hrs; type: functional, cell-based; settings: NCI-H146, 72 h
SHP77 = assay: Antiproliferative activity against human SHP77 cells incubated for 72 hrs; type: functional, cell-based; settings: SHP77, 72 h
[5] = Antiproliferative activity against human BEAS-2B cells incubated for 72 hrs; type: toxicity, cell-based
[6] = Antiproliferative activity against human L02 cells incubated for 72 hrs; type: toxicity, cell-based
NCI-H82 = assay: Antiproliferative activity against human NCI-H82 cells incubated for 72 hrs; type: functional, cell-based; settings: NCI-H82, 72 h
[7] = Toxicity in BALB/c nude mouse xenografted with human NCI-H446 cells assessed as body weight change at 20 mg/kg, ip for 21 days; type: organism-based; settings: in vivo, 504 h, time 21 day
NCI-H446 [8] = assay: Induction of early apoptosis in human NCI-H446 cells incubated for 48 hrs by Annexin V-FITC/PI staining based flow cytometry; type: functional, cell-based; settings: dose 1-8 µM
NCI-H446 [9] = assay: Inhibition of cell invasion in human NCI-H446 cells incubated for 24 hrs by transwell assay; type: functional, cell-based
NCI-H1048 [10] = assay: Inhibition of cell invasion in human NCI-H1048 cells incubated for 24 hrs by transwell assay; type: functional, cell-based
NCI-H446 [11] = assay: Antitumor activity against human NCI-H446 cells xenografted in BALB/c nude mouse at 20 mg/kg, ip for 21 days relative to control; type: functional; settings: NCI-H446, 504 h, time 21 day, read-out: TGI

Structure (SMILES) | pIC50 (NCI-H209) | Activity (NCI-H1048 [1]) | pIC50 [2] | pIC50 (NCI-H446 [3]) | pIC50 (NCI-H1048 [4]) | pIC50 (NCI-H146) | pIC50 (SHP77) | IC50 at 72 h [5] [µM] | IC50 at 72 h [6] [µM] | pIC50 (NCI-H82) | Activity [7] | Activity (NCI-H446 [8]) | inhibition (NCI-H446 [9]) | inhibition (NCI-H1048 [10]) | inhibition in vivo at 20 mg/kg (NCI-H446 [11]) [%]
COc1cc([C@@H]2c3cc4c(cc3[C@@H](O[C@@H]3O[C@@H]5CO[C@@H](C)O[C@H]5[C@H](O)[C@H]3O)[C@H]3COC(=O)[C@H]23)OCO4)cc(OC)c1O [ETOPOSIDE] | < 4.00 | Not active; Exhibited Minimal Impact | 4.62 | 5.68 | 5.82 | 4.98 | 4.58 | 6.19 | 15.9 | 5.08 | Toxic | Not active; Exhibited Minimal Impact | Dose-dependent-effect | Dose-dependent-effect | 68.7
CC1CCCN(Cc2cc3c(cc2-c2cc4ccc5c(c4cn2)OCO5)OCO3)C1 (centres undefined) | 4.39 | – | 4.56 | 4.64 | 5.00 | 4.50 | 4.75 | 14.3 | 43 | 4.53 | – | – | – | – | –
O=C1CCC2CCN(Cc3cc4c(cc3-c3cc5ccc6c(c5cn3)OCO6)OCO4)CN12 (centres undefined) | < 4.00 | – | 4.11 | 4.30 | < 4.00 | 4.20 | 4.44 | > 100 | 84.6 | 4.14 | – | – | – | – | –
CN1CCC(C2CCN(Cc3cc4c(cc3-c3cc5ccc6c(c5cn3)OCO6)OCO4)CC2)CC1 | 4.57 | – | 4.50 | 4.77 | 4.70 | 4.93 | 4.81 | 12.2 | > 100 | 4.91 | – | – | – | – | –
OCCCC1CCN(Cc2cc3c(cc2-c2cc4ccc5c(c4cn2)OCO5)OCO3)CC1 | 4.16 | – | 4.55 | 4.71 | 4.61 | 4.68 | 4.58 | 24.8 | 52.2 | 4.39 | – | – | – | – | –
c1c(CN2CC3(CCCCC3)C2)c(-c2cc3ccc4c(c3cn2)OCO4)cc2c1OCO2 | 4.50 | – | 4.51 | 4.86 | 4.89 | 4.81 | 4.63 | 12.6 | 41.5 | 4.91 | – | – | – | – | –
FC1(F)C2CCN(Cc3cc4c(cc3-c3cc5ccc6c(c5cn3)OCO6)OCO4)CC21 (centres undefined) | 4.51 | – | 4.56 | 4.96 | 4.67 | 4.89 | 4.80 | 10.3 | 77.6 | 4.35 | – | – | – | – | –
CC(C)(O)C1CCN(Cc2cc3c(cc2-c2cc4ccc5c(c4cn2)OCO5)OCO3)CC1 | 4.19 | – | 4.28 | 4.54 | 4.25 | < 4.00 | 4.39 | 30.1 | 38.2 | 4.17 | – | – | – | – | –
c1c(CN2CCC(C3CC3)CC2)c(-c2cc3ccc4c(c3cn2)OCO4)cc2c1OCO2 | < 4.00 | – | < 4.00 | 4.81 | < 4.00 | 4.42 | < 4.00 | > 100 | 83.6 | < 4.00 | – | – | – | – | –
CC(O)C1CCN(Cc2cc3c(cc2-c2cc4ccc5c(c4cn2)OCO5)OCO3)CC1 (centres undefined) | 4.21 | – | 4.49 | 4.56 | 4.42 | 4.61 | 4.55 | 21.8 | 30.3 | 4.32 | – | – | – | – | –
CC1(C)CCN(Cc2cc3c(cc2-c2cc4ccc5c(c4cn2)OCO5)OCO3)C1 | 4.51 | – | 4.86 | 4.90 | 5.14 | 4.85 | 4.79 | 17 | 24.8 | 4.82 | – | – | – | – | –
c1c(CN2CC3(CCCC3)C2)c(-c2cc3ccc4c(c3cn2)OCO4)cc2c1OCO2 | 4.47 | – | 4.80 | 4.73 | 4.70 | 4.54 | 4.51 | 14.8 | > 100 | 4.58 | – | – | – | – | –

— ChEMBL document CHEMBL6153083, “Synthesis, Structural Modification, and Antismall Cell Lung Cancer Activity of 3-Arylisoquinolines with Dual Inhibitory Activity on Topoisomerase I and II” (J Med Chem, 2025)
